The target of test [1] is Mcl-1 protein (residues 171-323) (Homo sapiens (Human), UniProt Q07820). As to the kind of experiment: Inhibition of Mcl-1 by fluorescence polarization (FP) competitive binding assay with FAM-Bid tracer. Particulars: 2 nM FAM-Bid, 20 nM Mcl-1, 30 min, read-out: Mc1-1 (FP). How it is done:
Inhibition of Mcl-1 by fluorescence polarization (FP) assay.
The method used a fluorescein labelled peptide (FAM-Bid) which binds to the Mcl-1 protein leading to an increased anisotropy measured in milli-polarization (mP) values using a plate reader.
A 10-points serial dilution of each compound was prepared in DMSO and 5 μL solution was transferred into flat bottomed, 96-well back plate (final DMSO concentration 5%). 120 μL of Buffer (PBS, 0.01% BGG (Sigma Cat. #SRE0011), 0.01% Triton X-100), containing the Fluorescein labelled peptide (Final concentration 2 nM) and Mcl-1 protein (final concentration 20 nM) was then added. […] 10-points dose response curves were plotted with GraphPad software using Sigmoidal Dose-Response Model and the IC50 values were determined by nonlinear regression fitting of the competition curves.
For orientation: Fluorescence polarisation rises when a labelled molecule tumbles more slowly, as on binding a larger partner.

Another test relates to OPM-2 cells. Briefly: Cell viability assay (OPM-2 cells), CCK-8. Format: cell-based. Particulars: 5% FBS. How it is done: Cell Viability Assay (OPM-2 cells)
OPM-2 cells were obtained from Deutsche Sammlung von Mikroorganismen and Zellkulturen GmbH (DSMZ). Cells were maintained in the recommended culture medium with 10% FBS at 37° C. and an atmosphere of 5% CO2.
The effect of representative Compounds of the Disclosure on cell viability was determined using Cell Counting Kit-8 (CCK-8) assay (Shanghai Life iLab Bio Technology) according to the manufacturer's instructions. Each tested compound was serially diluted in culture medium, 100 μL of the compound dilution was added into 96-well plates. 100 μL of an OPM-2 cell suspension (20000 cells/well) in culture medium were seeded into the corresponding well of the plate and the cells were incubated at 37° C. in an atmosphere of 5% CO2 for 24 hours. In the next day, 20 μL of CCK-8 solution was added to each well of the plate and incubated for 4 hours.
The plates were read at 450 nm on the microplate spectrophotometer (SpectraMax plus 384, Molecular devices). The readings were normalized to the vehicle cells, and the IC50 was calculated by nonlinear regression analysis using GraphPad Prism 6 software.

The test system of the next test is NCI-H929 cells. Briefly: Cell viability assay (NCI-H929 cells), CCK-8. Format: cell-based. Particulars: 5% FBS. How it is done: Cell Viability Assay (NCI-H929 cells)
NCI-H929 cells were obtained from American Type Culture Collection (ATCC). Cells were maintained in the recommended culture medium (RPMI 1640) with 10% FBS and 0.05 mM BME at 37° C. and an atmosphere of 5% CO2.
The effect of Compounds on cell viability was determined using Cell Counting Kit-8 (CCK-8) assay according to the manufacturer's instructions. 95 μL of NCI-H929 cell suspension (20000 cells/well) in culture medium were seeded into 96-well plates and cultured 4 hrs. Each tested compound was serially diluted in DMSO, then 5 μL of the compound or DMSO was diluted in 95 μL medium once more. At last, 5 μL of the compound dilution was added to the corresponding well of the cell plate. After the addition of the tested compound, the cells were incubated at 37° C. in an atmosphere of 5% CO2 for 24 hrs. At the end, 10 μL of CCK-8 solution was added to each well of the plate and incubated for 1-4 hours. The plates were read at 450 nm on the microplate reader (BioTek Synergy 1MF). The readings were normalized to the vehicle cells, and the IC50 was calculated by nonlinear regression analysis using GraphPad Prism 6 software.

Chain of Mcl-1 protein (residues 171-323) (Q07820 171-323): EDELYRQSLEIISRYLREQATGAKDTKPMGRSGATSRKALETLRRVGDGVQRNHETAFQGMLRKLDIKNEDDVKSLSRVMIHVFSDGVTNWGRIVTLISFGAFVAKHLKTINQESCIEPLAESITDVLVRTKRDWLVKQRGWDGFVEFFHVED

In the case of `COCCn1nc(C)c2c1CSCc1cc(n(C)n1)CSc1cc(c3ccccc3c1)OCCCn1c(C(=O)O)c(C)c3c-2c(Cl)ccc31` [Cpd. No. 27, (Z)-1^5-chloro-2^1-(2-methoxyethyl)-1^3,2^3,6^1-trimethyl-1^1H,2^1H,6^1H-10-oxa-4,8-dithia-1(4,1)-indola-2(4,5),6(3,5)-dipyrazola-9(3,1)-naphthalenacyclotridecaphane-1^2-carboxylic acid], the IC50 in test [1] came to 15 nM; in the test on OPM-2 cells (Homo sapiens, OPM-2, 24 h) it was 258 nM; in the test on NCI-H929 cells (Homo sapiens, NCI-H929, 24 h) it was 285 nM.
For `Cc1c(C(=O)O)n2c3ccc(Cl)c(c13)-c1c(nn(C)c1C)CN(S(=O)(=O)N(C)C)Cc1cc(n(C)n1)CSc1cc(c3ccc(F)cc3c1)OCCC2` [Cpd. No. 40, (Z)-1^5-chloro-9^6-fluoro-1^3,2^1,2^5,6^1-tetramethyl-4-(N, N-dimethylsulfamoyl)-1^1H,2^1H,6^1H-10-oxa-8-thia-4-aza-1 (4,1)-indola-2(4,3),6(3,5)-dipyrazola-9(3,1)-naphthalenacyclotridecaphane-1^2-carboxylic acid], in that order: 13 nM, 190 nM and 159 nM.
In the same order, the values of `Cc1c(C(=O)O)n2c3ccc(Cl)c(c13)-c1c(nn3c1COCC3)CN(S(C)(=O)=O)Cc1cc(n(C)n1)CSc1cc(c3ccc(F)cc3c1)OCCC2` [Cpd. No. 30, (Z)-1^5-chloro-9^6-fluoro-4-(isopropylsulfonyl)-1^3, 6^1-di methyl-2^6,2^7-dihydro-1^1H,2^4H,6^1H-10-oxa-8-thia-4-aza-2(3,2)-pyrazolo[5,1-c][1,4]oxazina-1(4,1)-indola-6(3,5)-pyrazola-9(3,1)-naphthalenacyclotridecaphane-1^2-carboxylic acid] are 17 nM, 5240 nM and 1850 nM.
For `CNC(=O)Cn1nc2c(c1C)-c1c(Cl)ccc3c1c(C)c(C(=O)O)n3CCCOc1cc(cc3ccccc13)SCc1cc(nn1C)CSC2` [Cpd. No. 10, (Z)-1^5-chloro-1^3,2^5,6^1-trimethyl-2^1-(2-(methylamino)-2-oxoethyl)-1^1H,2^1H,6^1H-10-oxa-4,8-dithia-1(4,1)-indola-2(4,3),6(3,5)-dipyrazola-9(3,1)-naphthalenacyclotridecaphane-1^2-carboxylic acid], in that order: 4 nM, 4110 nM and 1850 nM.
For `Cc1c(C(=O)O)n2c3ccc(Cl)c(c13)-c1c(nn(C)c1C)CN(S(=O)(=O)c1ccn(C)n1)Cc1cc(n(C)n1)CSc1cc(c3ccc(F)cc3c1)OCCC2` [Cpd. No. 37, (Z)-1^5-chloro-9^6-fluoro-1^3,2^1,2^5,6^1-tetramethyl-4#1-methyl-1H-pyrazol-3-yl))sulfonyl)-1^1H,2^1H,6^1H-10-oxa-8-thia-4-aza-1(4,1)-indola-2(4,3),6(3,5)-dipyrazola-9(3,1)-naphthalenacyclotridecaphane-1^2-carboxylic acid], the IC50 stood at 29 nM in test [1]; 3160 nM in the test on OPM-2 cells (Homo sapiens, OPM-2, 24 h); 1500 nM in the test with NCI-H929 cells (Homo sapiens, NCI-H929, 24 h).
In the same order, the values of `Cc1c(C(=O)O)n2c3ccc(Cl)c(c13)-c1c(nn(C)c1C)CN(C(=O)c1nccn1C)Cc1cc(n(C)n1)CSc1cc(c3ccc(F)cc3c1)OCCC2` [Cpd. No. 44, (Z)-1^5-chloro-9^6-fluoro-1^3,2^1,2^5,6^1-tetramethyl-4-(1-methyl-1H-imidazole-2-carbonyl)-1^1H,2^1H,6^1H-10-oxa-8-thia-4-aza-1(4,1)-indola-2(4,3),6(3,5)-dipyrazola-9(3,1)-naphthalenacyclotridecaphane-1^2-carboxylic acid] are 23 nM, 1160 nM and 780 nM.
`Cc1c(C(=O)O)n2c3ccc(Cl)c(c13)-c1c(nn(C)c1C)CN(C(=O)c1ccccn1)Cc1cc(n(C)n1)CSc1cc(c3ccc(F)cc3c1)OCCC2` [Cpd. No. 42, (Z)-1^5-chloro-9^6-fluoro-1^3,2^1,2^5,6^1-tetramethyl-4-picolinoyl-1^1H,2^1H,6^1H-10-oxa-8-thia-4-aza-1 (4,1)-indola-2(4,3),6(3,5)-dipyrazola-9(3,1)-naphthalenacyclotridecaphane-1^2-carboxylic acid]: the IC50 in test [1] was determined as 22 nM; in the test on OPM-2 cells (Homo sapiens, OPM-2, 24 h), 1510 nM; in the test with NCI-H929 cells (Homo sapiens, NCI-H929, 24 h), 768 nM.
For `Cc1c2c(nn1C)CSCc1cc(n(C)n1)CSc1cc(c3ccc(F)cc3c1)OCCCn1c(C(=O)O)c(C#N)c3c-2c(Cl)ccc31` [Cpd. No. 25, (Z)-1^5-chloro-1^3-cyano-9^6-fluoro-2^1,2^5,6^1-trimethyl-1^1H,2^1H,6^1H-10-oxa-4,8-dithia-1(4,1)-indola-2(4,3),6(3,5)-dipyrazola-9(3,1)-naphthalenacyclotridecaphane-1^2-carboxylic acid], in that order: 21 nM, 5970 nM and 4290 nM.
Regarding “(Z)-1^5-chloro-9^6-fluoro-1^3,2^1,2^3,6^1-tetramehtyl-4-(methylsulfonyl)-1^1H,2^1H,6^1H-10-oxa-8-thia-4-aza-1(4,1)-indola-2(4,5),6(3,5)-dipyrazola-9(3,1)- naphthalenacyclotridecaphane-1^2-carboxylic acid [Cpd. No. 49]”, the IC50 in test [1] was found to be 5 nM; with OPM-2 cells (24 hours) it was 308 nM; in the test on NCI-H929 cells (24 hrs), 204 nM.
With `Cc1c(C(=O)O)n2c3ccc(Cl)c(c13)-c1c(nn(C)c1C)CN(CC(=O)N(C)C)Cc1cc(n(C)n1)CSc1cc(c3ccc(F)cc3c1)OCCC2` [Cpd. No. 54, (Z)-1^5-chloro-4-(2-(dimethylamino)-2-oxoethyl)-9^6-fluoro-1^3,2^1,2^5, 6^1--tetramethyl-1^1H,2^1H,6^1H-10-oxa-8-thia-4-aza-1(4,1)-indola-2(4,3),6(3,5)-dipyrazola-9(3,1)-naphthalenacyclotridecaphane-1^2-carboxylic acid], the IC50 in test [1] came out at 27 nM; with OPM-2 cells (Homo sapiens, OPM-2, 24 h), 3480 nM; with NCI-H929 cells (Homo sapiens, NCI-H929, 24 h), 673 nM.
In the same order, the values of `Cc1c(C(=O)O)n2c3ccc(F)c(c13)-c1c(nn(C)c1C)CSCc1cc(n(C)n1)CSc1cc(c3ccc(F)cc3c1)OCCC2` [Cpd. No. 21, (Z)-1^5,9^6-difluoro-1^3,2^1,2^5,6^1-tetramethyl-1^1H,2^1H,6^1H-10-oxa-4,8-dithia-1(4,1)-indola-2(4,3), 6(3,5)-dipyrazola-9(3,1)-naphthalenacyclotridecaphane-1^2-carboxylic acid] are 10 nM, 223 nM and 170 nM.
In the same order, the values of `CNS(=O)(=O)N1Cc2cc(n(C)n2)CSc2cc(c3ccc(F)cc3c2)OCCCn2c(C(=O)O)c(C)c3c(c(Cl)ccc32)-c2c(nn(C)c2C)C1` [Cpd. No. 38, (Z)-1^5-chloro-9^6-fluoro-1^3,2^1,2^5,6^1-tetramethyl-4-(N-methylsulfamoyl)-1^1H,2^1H,6^1H-10-oxa-8-thia-4-aza-1 (4,1)-indola-2(4,3),6(3,5)-dipyrazola-9(3,1)-naphthalenacyclotridecaphane-1^2-carboxylic acid] are 7 nM, 543 nM and 270 nM.
For `Cc1c2c(nn1C)CSCc1cc(n(C)n1)CSc1cc(c3ccc(F)cc3c1)OCCCn1c(C(=O)O)cc3c-2c(Cl)ccc31` [Cpd. No. 13, (Z)-1^5-chloro-9^6-fluoro-2^1,2^5,6^1-trimethyl-1^1H,2^1H,6^1E-10-oxa-4,8-dithia-1(4,1)-indola-2(4,3),6(3,5)-dipyrazola-9(3,1)-naphthalenacyclotridecaphane-1^2-carboxylic acid], the IC50 stood at 649 nM in the test on OPM-2 cells (Homo sapiens, OPM-2, 24 h) and 180 nM with NCI-H929 cells (Homo sapiens, NCI-H929, 24 h).

Values taken from patent US11691989B2, “Macrocyclic indoles as Mcl-1 inhibitors” (ASCENTAGE PHARMA (SUZHOU) CO., LTD., priority 2018, dated 2023).
